Where two headings read alike, the source gives them in different places.
Columns and labels:
PI3K p110α/p85α (h) = molecular target: T1, PI3K p110α/p85α (h) (Homo sapiens, UniProt P42336); assay: PI3K p110α/p85α (h) non-radioactive HTRF assay; assay type: biochemical
T1 construct: purchased Millipore UK Ltd (assay service)
Protocol: (§1) PI3K p110α/p85α (h) is incubated in assay buffer containing 10 μM phosphatidylinositol 4,5-bisphosphate and MgATP (concentration as required). The reaction is initiated by the addition of the ATP solution. After incubation for 30 minutes at room temperature, the reaction is stopped by the addition of stop solution containing EDTA and biotinylated phosphatidylinositol-3,4,5-trisphosphate. Finally, detection buffer is added, which contains europium-labelled anti-GST monoclonal antibody, GST-tagged GRP1 PH domain and streptavidin allophycocyanin. The plate is then read in timeresolved fluorescence mode and the homogenous time-resolved fluorescence (HTRF) signal is determined according to the formula HTRF=10000×(Em665 nm/Em620 nm).
(§2) The kinase assays described herein were performed at Millipore UK Ltd, Dundee Technology Park, Dundee DD2 1SW, UK.

[1] = Compound stability in human liver microsomes; assay type: in vitro ADME; details: pH 7.4; for half-life at 5 μM: human liver microsomes 0.5 mg protein/mL, compound 5 μM, NADPH 1.0 mM, 37° C., read-out: Human T1/2; for CLint scaled at 5 μM: human liver microsomes, in vivo CLint extrapolated
Protocol: (§3) Human or rat liver microsomes incubations were conducted in duplicate in polypropylene tubes. The typical incubation mixtures consisted of human or rat liver microsomes (0.5 mg protein/mL), compounds of interest (5 μM) and NADPH (1.0 mM) in a total volume of 200 μL potassium phosphate buffer (PBS, 100 mM, pH=7.4). Compounds were dissolved in DMSO and diluted with PBS such that the final concentration of DMSO was 0.05%. The enzymatic reactions were commenced with the addition of […] after a 3-min preincubation and incubated in a water bath open to the air at 37° C. Reactions were terminated at various time points (0, 5, 10, 15, 30, 60 min) by adding equal volume of ice-cold acetonitrile. The samples were stored at −80° C. until LC/MS/MS assays.
(§4) The concentrations of compounds in the incubation mixtures of human or rat liver microsomes were determined by a LC/MS/MS method. The ranges of the linearity in the concentration range were determined for each tested compounds.
(§5) A parallel incubation was performed using denatured microsomes as the negative control, and reactions were terminated at various time points (0, 15, 60 min) after incubation at 37° C.
(§6) Dextromethorphan (70 μM) was selected as the positive control, and reactions were terminated at various time points (0, 5, 10, 15, 30, 60 min) after incubation at 37° C. Both positive and negative control samples were included in each assay to ensure the integrity of the microsomal incubation system.
(§7) The concentrations of compounds in human or rat liver microsome incubations were plotted as a percentage of the relevant zero time point control for each reaction. The in vivo CLint were extrapolated (ref: Naritomi Y, Terashita S, Kimura S, Suzuki A, Kagayama A, Sugiyama Y. Prediction of human hepatic clearance from in vivo animal experiments and in vitro metabolic studies with liver microsomes from animals and humans. Drug Metabolism and Disposition 2001, 29: 1316-1324).

[2] = Pharmacokinetic profiles in rats after intravenous and oral administration; assay type: in vivo; details: for F: oral dose generally 5 or 10 mg/kg; for AUC(0-t) / half-life / Vd: rat, plasma; for Vd: read-out: Vss
Protocol: The compounds disclosed herein are assessed in pharmacokinetic studies in mice, rats, dogs or monkeys. The compounds are administered as a water solution, 2% HPMC+1% TWEEN® 80 in water solution, 5% DMSO+5% solutol in saline, 4% MC suspension or capsule. For the intravenous administration, the animals are generally given at 1 or 2 mg/kg dose. For the oral (p.o.) dosing, mice and rats are generally given 5 or 10 mg/kg dose, and dogs and monkeys are generally given 10 mg/kg dose. The blood samples (0.3 mL) are drawn at 0.25, 0.5, 1.0, 2.0, 3.0, 4.0, 6.0, 8.0, 12 and 24 h time points or 0.083, 0.25, 0.5, 1.0, 2.0, 4.0, 6.0, 8.0 and 24 h time points and centrifuged at 3,000 or 4000 rpm for 2 to 10 min. The plasma solutions are collected, stored at −20° C. or −70° C. until analyzed by LC/MS/MS as described above.

mTOR (h) = molecular target: T2, mTOR (h) (Homo sapiens, UniProt P42345); assay: mTOR (h) kinase assay (33P-ATP, filter); assay type: biochemical
T2 construct: purchased Millipore UK Ltd (assay service)
Protocol: mTOR (h) is incubated with 50 mM HEPES pH 7.5, 1 mM EDTA, 0.01% Tween 20, 2 mg/mL substrate, 3 mM Manganese Chloride and [γ-^33P-ATP] (specific activity approx. 500 cpm/pmol, concentration as required). The reaction is initiated by the addition of the MnATP mix. After incubation for 40 minutes at room temperature, the reaction is stopped by the addition of 3% phosphoric acid solution. 10 μL of the reaction is then spotted onto a P30 filtermat and washed three times for 5 minutes in 75 mM phosphoric acid and once in methanol prior to drying and scintillation counting.
as §2

[3] = Compound stability in rat liver microsomes; assay type: in vitro ADME; details: for half-life at 5 μM / CLint scaled at 5 μM: pH 7.4; for half-life at 5 μM: read-out: Rat T1/2; for CLint scaled at 5 μM: rat liver microsomes, in vivo CLint extrapolated
Protocol: as §3, §4, §5, §6, §7

PI3K (p110δ/p85α) (h) = molecular target: T3, PI3K (p110δ/p85α) (h) (Homo sapiens, UniProt O00329); assay: PI3K p110δ/p85α (h) non-radioactive HTRF assay; assay type: biochemical
T3 construct: purchased Millipore UK Ltd (assay service)
Protocol: as §1, with “(p110δ/p85α)” for “p110α/p85α”, “phosphatidylinositol-4,5-bisphosphate” for “phosphatidylinositol 4,5-bisphosphate”, “MgATP mix.” for “ATP solution.”, “streptavidin-allophycocyanin.” for “streptavidin allophycocyanin.”
as §2

PI3K p110β/p85α (h) = molecular target: T4, PI3K p110β/p85α (h) (Homo sapiens, UniProt P42338); assay: PI3K p110β/p85α (h) non-radioactive HTRF assay; assay type: biochemical
T4 construct: purchased Millipore UK Ltd (assay service)
Protocol: as §1, with “(p110β/p85α)” for “p110α/p85α”, “phosphatidylinositol-4,5-bisphosphate” for “phosphatidylinositol 4,5-bisphosphate”, “MgATP mix.” for “ATP solution.”, “streptavidin-allophycocyanin.” for “streptavidin allophycocyanin.”
as §2

U87MG glioblastoma cells = assay: Tumor xenograft model (U87MG), tumor growth inhibition; assay type: in vivo, athymic nude mice; details: 14 days
Protocol: The efficacy of compounds disclosed herein was evaluated in a standard murine model of tumorigenesis. Human tumor cells (U87MG glioblastoma cells from ATCC) were expended in culture, harvested, and injected subcutaneously onto the rear flank of 6-7 week old female athymic nude mice (BALB/cA nu/nu, Hunan SLAC Laboratory Animal, Co.) (n=6-10 for vehicle group and for each dosing group). When tumors reached a volume of 100-250 mm^3, animals were randomly divided into vehicle control (for example, 5% DMSO+70% Captisol® (30%), 7% HCl (pH1), 18% Captisol® (30%); or 7% DMSO, 7% HCl (pH1), 70% Captisol® (30%), 16% Captisol® (30%), or the like) and compound groups. Subsequent administration of compound by oral gavage begins anywhere from day 0 to day 15 post tumor cell challenge and generally continues with once a day for the duration of the experiment.
Progression of tumor growth is assessed by tumor volumes and recorded as a function of time. The long (L) and short (W) axes of the subcutaneous tumors were measured with calipers twice weekly, and the tumor volume (TV) calculated as (L×W^2)/2). TGI was calculated from the difference between the median tumor volumes of vehicle-treated and drug-treated mice, expressed as a percentage of the median tumor volume of the vehicle-treated control group, by the following relation:
Initial statistical analysis is done by repeated measures analysis of variance (RMANOVA), followed by Scheffe psot hoc testing for multiple comparisons. Vehicle alone (5% DMSO+70% Captisol® (30%), 7% HCl (pH1), 18% Captisol® (30%); or 7% DMSO, 7% HCl (pH1), 70% Captisol® (30%), 16% Captisol® (30%), or the like) is the negative control.

[4] = rat liver microsomes 0.5 mg protein/mL, compound 5 μM, NADPH 1.0 mM, 37° C.

T1 sequence (P42336 whole entry): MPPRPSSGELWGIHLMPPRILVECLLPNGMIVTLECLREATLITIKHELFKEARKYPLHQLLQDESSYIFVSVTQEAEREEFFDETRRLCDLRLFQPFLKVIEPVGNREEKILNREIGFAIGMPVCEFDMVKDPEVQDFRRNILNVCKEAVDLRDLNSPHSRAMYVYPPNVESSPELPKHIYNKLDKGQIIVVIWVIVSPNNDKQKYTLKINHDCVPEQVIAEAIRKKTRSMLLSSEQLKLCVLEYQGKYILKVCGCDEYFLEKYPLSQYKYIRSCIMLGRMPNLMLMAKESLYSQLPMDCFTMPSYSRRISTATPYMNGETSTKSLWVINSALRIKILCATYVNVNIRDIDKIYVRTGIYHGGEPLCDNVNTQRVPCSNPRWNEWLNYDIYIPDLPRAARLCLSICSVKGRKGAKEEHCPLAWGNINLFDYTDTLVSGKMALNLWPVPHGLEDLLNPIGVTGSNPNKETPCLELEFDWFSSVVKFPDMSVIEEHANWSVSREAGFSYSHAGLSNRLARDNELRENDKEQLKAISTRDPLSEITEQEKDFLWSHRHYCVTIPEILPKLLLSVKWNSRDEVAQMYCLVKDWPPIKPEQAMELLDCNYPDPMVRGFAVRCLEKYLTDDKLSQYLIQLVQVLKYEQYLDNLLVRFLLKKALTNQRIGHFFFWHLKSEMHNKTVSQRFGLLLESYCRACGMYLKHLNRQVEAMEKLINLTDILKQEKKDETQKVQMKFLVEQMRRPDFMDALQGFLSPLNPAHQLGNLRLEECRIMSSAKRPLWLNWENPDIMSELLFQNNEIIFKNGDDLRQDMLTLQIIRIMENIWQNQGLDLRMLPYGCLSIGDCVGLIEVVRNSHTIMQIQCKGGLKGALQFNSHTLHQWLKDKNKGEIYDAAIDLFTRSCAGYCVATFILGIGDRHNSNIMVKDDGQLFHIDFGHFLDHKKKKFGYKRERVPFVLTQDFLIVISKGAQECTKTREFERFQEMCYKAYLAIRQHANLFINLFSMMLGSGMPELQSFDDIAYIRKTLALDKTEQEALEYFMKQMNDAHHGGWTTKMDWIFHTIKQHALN
T1 sequence (P27986 whole entry partner): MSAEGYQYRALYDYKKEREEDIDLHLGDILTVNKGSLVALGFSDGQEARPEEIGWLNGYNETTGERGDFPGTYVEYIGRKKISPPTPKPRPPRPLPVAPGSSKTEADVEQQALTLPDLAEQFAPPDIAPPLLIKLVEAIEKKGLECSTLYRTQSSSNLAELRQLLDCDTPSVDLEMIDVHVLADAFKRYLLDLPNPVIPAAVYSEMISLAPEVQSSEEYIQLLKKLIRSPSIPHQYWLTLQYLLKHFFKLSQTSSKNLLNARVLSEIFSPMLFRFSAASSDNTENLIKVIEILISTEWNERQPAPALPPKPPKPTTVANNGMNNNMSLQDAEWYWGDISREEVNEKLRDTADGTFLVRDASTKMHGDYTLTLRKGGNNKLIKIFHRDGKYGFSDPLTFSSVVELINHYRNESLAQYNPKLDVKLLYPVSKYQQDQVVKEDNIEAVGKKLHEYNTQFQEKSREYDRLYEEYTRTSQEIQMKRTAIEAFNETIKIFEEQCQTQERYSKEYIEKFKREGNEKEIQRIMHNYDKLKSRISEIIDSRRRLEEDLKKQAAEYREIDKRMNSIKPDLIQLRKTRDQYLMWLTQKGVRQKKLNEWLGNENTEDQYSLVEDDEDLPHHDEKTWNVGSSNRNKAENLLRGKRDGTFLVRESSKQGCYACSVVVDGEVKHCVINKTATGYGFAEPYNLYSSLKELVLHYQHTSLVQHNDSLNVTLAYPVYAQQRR
T3 sequence (O00329 whole entry): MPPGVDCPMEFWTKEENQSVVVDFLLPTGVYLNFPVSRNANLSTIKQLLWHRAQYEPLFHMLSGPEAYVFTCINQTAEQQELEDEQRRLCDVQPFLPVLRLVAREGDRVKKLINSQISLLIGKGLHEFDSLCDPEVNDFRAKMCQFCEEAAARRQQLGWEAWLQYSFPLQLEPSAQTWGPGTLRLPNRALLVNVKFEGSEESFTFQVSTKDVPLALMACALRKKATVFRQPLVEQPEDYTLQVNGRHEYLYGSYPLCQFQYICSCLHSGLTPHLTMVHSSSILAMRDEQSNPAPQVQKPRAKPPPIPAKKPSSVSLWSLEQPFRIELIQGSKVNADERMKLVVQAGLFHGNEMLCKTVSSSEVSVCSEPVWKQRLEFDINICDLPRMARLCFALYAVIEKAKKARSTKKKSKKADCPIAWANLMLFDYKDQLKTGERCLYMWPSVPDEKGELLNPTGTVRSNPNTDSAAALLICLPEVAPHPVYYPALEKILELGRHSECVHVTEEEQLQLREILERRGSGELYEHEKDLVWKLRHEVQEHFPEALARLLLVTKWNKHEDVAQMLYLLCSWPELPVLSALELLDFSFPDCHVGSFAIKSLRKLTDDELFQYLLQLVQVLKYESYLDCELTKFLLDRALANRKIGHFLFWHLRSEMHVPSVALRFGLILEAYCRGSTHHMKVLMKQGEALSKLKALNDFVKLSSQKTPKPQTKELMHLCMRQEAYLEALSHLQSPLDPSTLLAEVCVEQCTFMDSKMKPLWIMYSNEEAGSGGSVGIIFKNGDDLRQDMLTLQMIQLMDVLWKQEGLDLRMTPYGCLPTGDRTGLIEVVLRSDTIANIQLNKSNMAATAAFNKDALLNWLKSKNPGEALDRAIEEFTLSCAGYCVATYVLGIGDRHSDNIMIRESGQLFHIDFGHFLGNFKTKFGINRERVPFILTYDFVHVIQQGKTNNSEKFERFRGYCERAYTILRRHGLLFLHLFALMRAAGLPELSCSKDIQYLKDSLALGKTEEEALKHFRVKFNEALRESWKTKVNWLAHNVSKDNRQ
T3 sequence (P27986 whole entry partner): as the sequence (P27986 whole entry partner) above
T4 sequence (P42338 whole entry): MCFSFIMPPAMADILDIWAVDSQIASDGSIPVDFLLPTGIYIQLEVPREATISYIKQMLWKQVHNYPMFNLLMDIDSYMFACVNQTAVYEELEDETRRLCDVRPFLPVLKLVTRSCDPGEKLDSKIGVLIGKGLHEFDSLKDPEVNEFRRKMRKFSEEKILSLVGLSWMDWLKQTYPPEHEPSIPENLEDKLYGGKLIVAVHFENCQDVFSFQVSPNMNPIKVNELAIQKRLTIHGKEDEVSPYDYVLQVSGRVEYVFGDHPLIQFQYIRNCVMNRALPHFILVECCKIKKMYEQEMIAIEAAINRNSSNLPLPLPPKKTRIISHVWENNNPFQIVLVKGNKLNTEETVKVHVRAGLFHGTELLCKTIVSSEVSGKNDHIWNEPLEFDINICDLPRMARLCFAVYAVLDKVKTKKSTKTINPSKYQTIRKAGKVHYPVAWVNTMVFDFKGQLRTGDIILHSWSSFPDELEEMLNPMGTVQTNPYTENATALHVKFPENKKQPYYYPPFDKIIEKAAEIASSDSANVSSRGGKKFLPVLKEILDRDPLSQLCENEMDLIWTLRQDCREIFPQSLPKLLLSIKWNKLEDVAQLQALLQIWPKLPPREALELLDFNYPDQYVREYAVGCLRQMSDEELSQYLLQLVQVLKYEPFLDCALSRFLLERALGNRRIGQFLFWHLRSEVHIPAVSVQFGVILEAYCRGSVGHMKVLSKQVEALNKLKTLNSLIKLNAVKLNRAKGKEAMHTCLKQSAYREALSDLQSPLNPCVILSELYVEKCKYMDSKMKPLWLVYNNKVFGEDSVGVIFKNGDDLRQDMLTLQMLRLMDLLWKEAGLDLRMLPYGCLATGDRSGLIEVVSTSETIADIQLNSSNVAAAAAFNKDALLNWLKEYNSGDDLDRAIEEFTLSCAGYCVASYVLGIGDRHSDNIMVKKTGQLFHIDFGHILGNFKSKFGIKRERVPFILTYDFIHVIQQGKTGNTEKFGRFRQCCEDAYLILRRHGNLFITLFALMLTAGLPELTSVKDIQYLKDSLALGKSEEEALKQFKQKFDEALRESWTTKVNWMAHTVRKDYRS
T4 sequence (P27986 whole entry partner): as the sequence (P27986 whole entry partner) above

| SMILES | IC50 (PI3K p110α/p85α (h)) [nM] | half-life at 5 μM [1] [h] | CLint scaled at 5 μM [1] [mL/min/kg] | F ([2]; iv dose 2 mg/kg) [%] | Cl/F ([2]; iv dosing 2 mg/kg) [mL/min/kg] | AUC(0-t) ([2]; iv dosing 2 mg/kg) [ng·h/mL] | half-life ([2]; iv dosing 2 mg/kg) [h] | Vd ([2]; iv dosing 2 mg/kg) [L/kg] | IC50 (mTOR (h)) [nM] | half-life at 5 μM [3, 4] [h] | CLint scaled at 5 μM [3] [mL/min/kg] | IC50 (PI3K (p110δ/p85α) (h)) [nM] | IC50 (PI3K p110β/p85α (h)) [nM] | F ([2]; iv dose 1 mg/kg) [%] | Cl/F ([2]; iv dosing 1 mg/kg) [mL/min/kg] | AUC(0-t) ([2]; iv dosing 1 mg/kg) [ng·h/mL] | half-life ([2]; iv dosing 1 mg/kg) [h] | Vd ([2]; iv dosing 1 mg/kg) [L/kg] | further results |
| --- | --- | --- | --- | --- | --- | --- | --- | --- | --- | --- | --- | --- | --- | --- | --- | --- | --- | --- | --- |
| C#Cc1cnc2ccc(-c3cnc(OC)c(NS(=O)(=O)c4ccc(F)cc4F)c3)nn12 [Ex. 8, N-(5-(3-ethynylimidazo[1,2-b]pyridazin-6-yl)-2-methoxypyridin-3-yl)-2,4-difluorobenzenesulfonamide] | 6 | 4.04 | 7.17 | 115.1 | 2.17 | 16600 | 3.02 | 0.37 | 12 | 1.25 | 33.2 | – | – | – | – | – | – | – | – |
| COc1ncc(-c2ccc3ncc(C#N)n3c2)cc1NS(=O)(=O)c1ccc(F)cc1F [Ex. 19, N-(5-(3-cyanoimidazo[1,2-a]pyridin-6-yl)-2-methoxypyridin-3-yl)-2,4-difluorobenzenesulfonamide] | – | 7.07 | 4.1 | 54.66 | 3.83 | 10100 | 2.58 | 0.55 | – | – | – | 4 | 28 | – | – | – | – | – | Rat T1/2 [3, 4]: ∞ |
| CC#Cc1cnc2ccc(-c3cnc(OC)c(NS(=O)(=O)c4ccc(F)cc4F)c3)cn12 [Ex. 18, 2,4-difluoro-N-(2-methoxy-5-(3-(prop-1-yn-1-yl)imidazo[1,2-a]pyridin-6-yl)pyridin-3-yl)benzenesulfonamide] | – | 3.54 | 8.18 | – | – | – | – | – | – | 0.731 | 56.6 | 2 | 28 | 97.16 | 1.67 | 10300 | 2.33 | 0.35 | – |

The next lines start with results.

| IC50 (PI3K p110α/p85α (h)) [nM] | half-life at 5 μM [1] [h] | CLint scaled at 5 μM [1] [mL/min/kg] | F ([2]; iv dose 2 mg/kg) [%] | Cl/F ([2]; iv dosing 2 mg/kg) [mL/min/kg] | AUC(0-t) ([2]; iv dosing 2 mg/kg) [ng·h/mL] | half-life ([2]; iv dosing 2 mg/kg) [h] | Vd ([2]; iv dosing 2 mg/kg) [L/kg] | IC50 (mTOR (h)) [nM] | half-life at 5 μM [3, 4] [h] | CLint scaled at 5 μM [3] [mL/min/kg] | IC50 (PI3K (p110δ/p85α) (h)) [nM] | IC50 (PI3K p110β/p85α (h)) [nM] | F ([2]; iv dose 1 mg/kg) [%] | Cl/F ([2]; iv dosing 1 mg/kg) [mL/min/kg] | AUC(0-t) ([2]; iv dosing 1 mg/kg) [ng·h/mL] | half-life ([2]; iv dosing 1 mg/kg) [h] | Vd ([2]; iv dosing 1 mg/kg) [L/kg] | SMILES | further results |
| --- | --- | --- | --- | --- | --- | --- | --- | --- | --- | --- | --- | --- | --- | --- | --- | --- | --- | --- | --- |
| 14 | 2.69 | 10.8 | – | – | – | – | – | 23 | 1.62 | 25.5 | – | – | 96.0 | 2.33 | 6540 | 6.39 | 1 | C#Cc1cnc2ccc(-c3cnc(OC)c(NS(=O)(=O)c4ccc(F)cc4)c3)nn12 [Ex. 1, N-(5-(3-ethynylimidazo[1,2-b]pyridazin-6-yl)-2-methoxypyridin-3-yl)-4-fluorobenzenesulfonamide] | – |
| 12 | 2.4 | 12.1 | 61.5 | 1.2 | 29000 | 3.11 | 0.16 | 16 | 0.843 | 49.1 | – | – | – | – | – | – | – | COc1ncc(-c2ccc3ncc(C#CC(C)O)n3n2)cc1NS(=O)(=O)c1ccc(F)cc1 (stereo not shown) [Ex. 3, 4-fluoro N (5 (3 (3 hydroxybut-1-yn-1-yl)imidazo[1,2-b]pyridazin-6-yl)-2-methoxypyridin-3-yl)benzenesulfonamide] | – |
| 6 | – | – | 56.1 | 1.67 | 20700 | 3.42 | 0.22 | 29 | – | – | – | – | – | – | – | – | – | COc1ncc(-c2ccc3ncc(C#CCO)n3n2)cc1NS(=O)(=O)c1ccc(F)cc1 [Ex. 2, 4-fluoro-N-(5-(3-(3-hydroxyprop-1-yn-1-yl)imidazo[1,2-b]pyridazin-6-yl)-2-methoxypyridin-3-yl)benzenesulfonamide] | TGI % U87MG (U87MG glioblastoma cells; 1 mg/kg oral gavage): 6%; TGI % U87MG (U87MG glioblastoma cells; 3 mg/kg oral gavage): 21%; TGI % U87MG (U87MG glioblastoma cells; 10 mg/kg oral gavage): 35% |

Reference: patent US9926324B2, “Heteroaromatic compounds as PI3 kinase modulators and methods of use” (Calitor Sciences, LLC, priority 2012, dated 2018)
